Measurements from patent publication US12129237B2, “Substituted diaminocarboxamide and diaminocarbonitrile pyrimidines, compositions thereof, and methods of treatment therewith” (SIGNAL PHARMACEUTICALS, LLC, priority 2011, dated 2024).
pIC50: −log10 of the molar value.

Molecular target: T1, JNK1 (Homo sapiens, UniProt P45983)
T1 construct: purchased Carna Biosciences
Assay: JNK1 biochemical assays (one or more of: time resolved fluorescence, Z'-LYTE Cascade, radioactive)
Conditions: one or more of the JNK1 biochemical assays; read-out: Act. Level (JNK1 IC50 activity level)
Experimental: JNK1 Assay. A 384-well time resolved fluorescence assay was used to monitor JNK1 activity. The JNK1 assay was run in the following assay buffer: 50 mM HEPES, 10 mM MgCl2, 1 mM EGTA, 2 mM DTT, and 0.01% Tween 20. To initiate the reaction 100 nM of ULight™-labeled 4EBP1 peptide (Perkin-Elmer) and 5 μM of ATP were mixed with 500 pM of JNK1 (Carna Biosciences), for a total assay volume of 20 μL in each well. The assay was incubated at room temperature for 1 h and terminated using a mixture of 30 mM EDTA and 4 nM Eu-anti-4EBP1, by adding 20 μL of stop solution to each well. Plates were read on a Perkin-Elmer Envision Reader.
JNK1 Assay. The JNK1 Z′-LYTE® Cascade kinase assay was run in the following buffer: 50 mM HEPES at pH 7.5, 0.01% BRIJ-35, 10 mM MgCl2, 1 mM EGTA, and 1 mM DTT. […] The assay was incubated at room temperature for 1 h. […] The data was then read on a fluorescence plate reader and analyzed.
JNK1 assay. The radioactive JNK kinase assay was carried out in a 96-well plate format at a final volume of 100 μL. […] JNK1 was diluted in the following dilution buffer (20 mM HEPES pH 7.6, 0.1 mM EDTA, 2.5 mM MgCl2, 0.004% (w/v) Triton X100, 2 μg/ml Leupeptin, 20 mM B-glycerol phosphate, 0.1 mM Na3VO4 dithiothreitol) and then pre-mixed with cJun diluted in the substrate solution buffer (20 mM HEPES pH 7.6, 50 mM NaCl, 0.1 mM EDTA, 2.5 mM MgCl2, 0.05% (w/v) Triton X100). […] The enzyme, substrate and inhibitor mixture was allowed to equilibrate at room temperature for 15 minutes. The reaction was started by the addition of 10 μL of 10×ATP in kinase buffer (130 mM MgCl2, 6 mM dithiothreitol, 150 mM para-nitrophenyl phosphate, 100 μCi/ml γ-[^33P]-ATP). Reactions were allowed to proceed for 60 minutes before precipitation of protein via trichloroacetic acid (7.2% TCA final). […] The precipitate was washed with Phosphate Buffered Saline and the amount of phosphate incorporated into cJun was quantified by scintillation counting using a Packard Topcount-NXT. All assays were conducted under conditions where phosphate incorporation was linear with respect to time and enzyme concentration.

T1 sequence (P45983 whole entry): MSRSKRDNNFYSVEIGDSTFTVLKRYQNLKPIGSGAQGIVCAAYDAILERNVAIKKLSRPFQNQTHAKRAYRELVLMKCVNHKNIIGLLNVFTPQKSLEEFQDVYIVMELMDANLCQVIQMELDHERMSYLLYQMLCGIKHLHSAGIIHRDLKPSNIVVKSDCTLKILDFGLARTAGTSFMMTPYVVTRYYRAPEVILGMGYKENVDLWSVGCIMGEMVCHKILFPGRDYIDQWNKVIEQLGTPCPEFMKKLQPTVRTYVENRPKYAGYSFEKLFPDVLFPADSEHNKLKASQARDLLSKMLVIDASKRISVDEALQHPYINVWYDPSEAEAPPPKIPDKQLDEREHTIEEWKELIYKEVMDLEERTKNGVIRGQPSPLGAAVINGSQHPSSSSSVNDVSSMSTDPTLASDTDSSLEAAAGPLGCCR

| Compound | pIC50 |
| --- | --- |
| C[C@H](Nc1nc(N[C@H]2CC[C@H](O)CC2)ncc1C(N)=O)C1CC1 [Example 263, 4-((S)-1-cyclopropylethylamino)-2-((1r,4S)-4-hydroxycyclohexylamino)pyrimidine-5-carboxamide] | > 6.70 |
| C[C@@H]1CC[C@@H](Nc2nc(NC34CC(C3)C4)ncc2C(N)=O)C[C@H]1O [Example 264, 2-(bicyclo[1.1.1]pentan-1-ylamino)-4-((1R,3R,4R)-3-hydroxy-4-methylcyclohexylamino)pyrimidine-5-carboxamide] | > 6.70 |
| CC1CCC1Nc1nc(N[C@H]2CC[C@H](OCC(F)(F)F)CC2)ncc1C(N)=O (stereo partly drawn) [Example 265, 4-(2-methylcyclobutylamino)-2-((1r,4r)-4-(2,2,2-trifluoroethoxy)cyclohexylamino)pyrimidine-5-carboxamide] | > 6.70 |
| NC(=O)c1cnc(N[C@H]2CC[C@H](OCC(F)(F)F)CC2)nc1N[C@@H]1CCC[C@@H]1CO [Example 266, 4-((1R,2S)-2-(hydroxymethyl)cyclopentylamino)-2-((1r,4R)-4-(2,2,2-trifluoroethoxy)cyclohexylamino)pyrimidine-5-carboxamide] | > 6.70 |
| NC(=O)c1cnc(NC23CCC(F)(CC2)CC3)nc1N[C@@H]1CCC[C@H](O)C1 [Example 267, 2-(4-fluorobicyclo[2.2.2]octan-1-ylamino)-4-((1R,3S)-3-hydroxycyclohexylamino)pyrimidine-5-carboxamide] | > 6.70 |
| NC(=O)c1cnc(N[C@H]2CC[C@H](OC(F)F)CC2)nc1N[C@@H]1CCC[C@@H]1CO [Example 268, 2-((1r,4R)-4-(difluoromethoxy)cyclohexylamino)-4-((1R,2S)-2-(hydroxymethyl)cyclopentylamino)pyrimidine-5-carboxamide] | > 6.70 |
| CCNc1nc(N[C@H]2CC[C@H](O)CC2)ncc1C(N)=O [Example 269, 4-(ethylamino)-2-((1r,4r)-4-hydroxycyclohexylamino)pyrimidine-5-carboxamide] | > 6.70 |
| CNc1nc(N[C@H]2CC[C@H](O)CC2)ncc1C(N)=O [Example 270, 2-((1r,4r)-4-hydroxycyclohexylamino)-4-(methylamino)pyrimidine-5-carboxamide] | 6.10 to 6.70 |
| COCC(C)(C)Nc1nc(N[C@H]2CC[C@H](O)CC2)ncc1C(N)=O [Example 271, 2-((1r,4r)-4-hydroxycyclohexylamino)-4-(1-methoxy-2-methylpropan-2-ylamino)pyrimidine-5-carboxamide] | > 6.70 |
| C[C@@H]1CC[C@@H](Nc2nc(NC3CC3)ncc2C(N)=O)C[C@H]1O [Example 272, 2-(cyclopropylamino)-4-((1R,3R,4R)-3-hydroxy-4-methylcyclohexylamino)pyrimidine-5-carboxamide] | > 6.70 |
| CCO[C@H]1CC[C@H](Nc2ncc(C(N)=O)c(NC(C)(C)C(C)C)n2)CC1 [Example 273, 4-(2,3-dimethylbutan-2-ylamino)-2-((1r,4r)-4-ethoxycyclohexylamino)pyrimidine-5-carboxamide] | > 6.70 |
| CO[C@H]1CC[C@H](Nc2ncc(C(N)=O)c(NC(C)(C)C(C)C)n2)CC1 [Example 274, 4-(2,3-dimethylbutan-2-ylamino)-2-((1r,4r)-4-methoxycyclohexylamino)pyrimidine-5-carboxamide] | > 6.70 |
| CC(C)C(C)(C)Nc1nc(N[C@H]2CC[C@H](O)CC2)ncc1C(N)=O [Example 275, 4-(2,3-dimethylbutan-2-ylamino)-2-((1r,4r)-4-hydroxycyclohexylamino)pyrimidine-5-carboxamide] | > 6.70 |
| CCO[C@H]1CC[C@H](Nc2ncc(C(N)=O)c(N[C@@H](C)C(C)(C)C)n2)CC1 [Example 276, 4-((S)-3,3-dimethylbutan-2-ylamino)-2-((1r,4S)-4-ethoxycyclohexylamino)pyrimidine-5-carboxamide] | > 6.70 |
| CCO[C@H]1CC[C@H](Nc2ncc(C(N)=O)c(N[C@H](C)C(C)(C)C)n2)CC1 [Example 277, 4-((R)-3,3-dimethylbutan-2-ylamino)-2-((1r,4R)-4-ethoxycyclohexylamino)pyrimidine-5-carboxamide] | > 6.70 |
| CO[C@H]1CC[C@H](Nc2ncc(C(N)=O)c(N[C@@H](C)C(C)(C)C)n2)CC1 [Example 278, 4-((S)-3,3-dimethylbutan-2-ylamino)-2-((1r,4S)-4-methoxycyclohexylamino)pyrimidine-5-carboxamide] | > 6.70 |
| CO[C@H]1CC[C@H](Nc2ncc(C(N)=O)c(N[C@H](C)C(C)(C)C)n2)CC1 [Example 279, 4-((R)-3,3-dimethylbutan-2-ylamino)-2-((1r,4R)-4-methoxycyclohexylamino)pyrimidine-5-carboxamide] | > 6.70 |
| C[C@H](Nc1nc(N[C@H]2CC[C@H](O)CC2)ncc1C(N)=O)C(C)(C)C [Example 280, 4-((S)-3,3-dimethylbutan-2-ylamino)-2-((1r,4S)-4-hydroxycyclohexylamino)pyrimidine-5-carboxamide] | > 6.70 |
| C[C@@H](Nc1nc(N[C@H]2CC[C@H](O)CC2)ncc1C(N)=O)C(C)(C)C [Example 281, 4-((R)-3,3-dimethylbutan-2-ylamino)-2-((1r,4R)-4-hydroxycyclohexylamino)pyrimidine-5-carboxamide] | > 6.70 |
| CCO[C@H]1CC[C@H](Nc2ncc(C(N)=O)c(N[C@@H](C)C(C)C)n2)CC1 [Example 282, 2-((1r,4S)-4-ethoxycyclohexylamino)-4-((S)-3-methylbutan-2-ylamino)pyrimidine-5-carboxamide] | > 6.70 |
| CO[C@H]1CC[C@H](Nc2ncc(C(N)=O)c(N[C@@H](C)C(C)C)n2)CC1 [Example 283, 2-((1r,4S)-4-methoxycyclohexylamino)-4-((S)-3-methylbutan-2-ylamino)pyrimidine-5-carboxamide] | > 6.70 |
| CC(C)[C@H](C)Nc1nc(N[C@H]2CC[C@H](O)CC2)ncc1C(N)=O [Example 284, 2-((1r,4S)-4-hydroxycyclohexylamino)-4-((S)-3-methylbutan-2-ylamino)pyrimidine-5-carboxamide] | > 6.70 |
| C[C@@H]1CC[C@@H](Nc2nc(NC3CCC3)ncc2C(N)=O)C[C@H]1O [Example 285, 2-(cyclobutylamino)-4-((1R,3R,4R)-3-hydroxy-4-methylcyclohexylamino)pyrimidine-5-carboxamide] | > 6.70 |
| CCC(C)(C)Nc1ncc(C(N)=O)c(N[C@@H]2CC[C@@H](C)[C@H](O)C2)n1 [Example 286, 4-((1R,3R,4R)-3-hydroxy-4-methylcyclohexylamino)-2-(tert-pentylamino)pyrimidine-5-carboxamide] | > 6.70 |
| C[C@@H]1CC[C@@H](Nc2nc(NC3(C)CCC3)ncc2C(N)=O)C[C@H]1O [Example 287, 4-((1R,3R,4R)-3-hydroxy-4-methylcyclohexylamino)-2-(1-methylcyclobutylamino)pyrimidine-5-carboxamide] | > 6.70 |
| CC(C)(C)Nc1nc(NC23CCC(F)(CC2)CC3)ncc1C(N)=O [Example 289, 4-(tert-butylamino)-2-(4-fluorobicyclo[2.2.2]octan-1-ylamino)pyrimidine-5-carboxamide] | > 6.70 |
| CCO[C@H]1CC[C@H](Nc2ncc(C(N)=O)c(N[C@H](C)C(C)C)n2)CC1 [Example 290, 2-((1r,4R)-4-ethoxycyclohexylamino)-4-((R)-3-methylbutan-2-ylamino)pyrimidine-5-carboxamide] | > 6.70 |
